Patent US20250113823A1, “Arthropod Control Compositions” (priority 2022, published 2025)
Read-outs that look alike come from different tables or passages of the source.

Assays:
[1] = test system: Anopheles gambiae; test: Arm-in-cage test on human volunteers over time; type: in vivo; conditions: arm treated with 20%
[2] = test system: Anopheles gambiae; test: Warm Body assay, mosquito landings on treated warm body; type: in vivo; conditions: for repellence (no mosquito landing on the attractive stimulus): with at least one of the two concentrations 0.447% & 1% (Table 4)
Experimental: Anopheles gambiae is also a model organism as it is anthropophilic and transmits malaria.
The controlling effect according to the present invention was assessed using an adapted Warm Body assay as defined in Kröber T, Kessler S, Frei J, Bourquin M, Guerin P M. 2010. J Am Mosq Control Assoc. 26: 381-386. In this in-vitro assay the number of mosquito landing on a warm body, simulating an attractive host treated with the tested stimuli, was measured in order to assess the repellence effect.
On the sandblasted glass Petri dish covering the warm body (28.3 cm^2), 100 μL of the compounds diluted at different concentrations in ethanol was applied. The number of mosquito landing on the warm body was counted for each stimulus and pure ethanol (solvent) as control.

[3] = test system: Ixodes ricinus; test: Warm Plate assay, tick repellence; conditions: for pest or weed control at 400 µg/mL / pest or weed control at 2000 µg/mL / pest or weed control at 10000 µg/mL: Ixodes ricinus, read-out: Percentage of repellence of ticks Ixodes ricinus on the warm plate; for ticks repelled: concentration of 1% (Table 10)
[4] = test system: Aedes aegypti; test: Warm Body assay, mosquito landings on treated warm body; type: in vivo; conditions: for pest or weed control at 0.04 %: intermediate concentration of 0.04% (Table 3); for pest or weed control at 0.04 % / pest or weed control at 1 %: read-out: repellence; for pest or weed control at 0.0016 %: read-out: reduce the number of mosquito landings
In short: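 Compounds in ethanol (100 μL, various concentrations) were applied to a sandblasted glass dish covering the warm body (28.3 cm^2), with ethanol as control. Landings were counted automatically from 30 non-blood-fed, sugar-fed Aedes aegypti Rockefeller females aged 5–10 days, under 150 lux.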

[5] = test system: Aedes aegypti; test: Free flying room assay, spatial repellence with human volunteer; type: in vivo
Text: The goal of this large-scale test is to assess the propensity of stimulus released in the air to protect a human volunteer by limiting the mosquito presence in a protected space and the number of landing/biting. The protocol used to carry the test is following the guidelines indicated in WHO (2013; ISBN 978 92 4 150502 4).
A group of 50 Aedes aegypti female mosquitoes were introduced in one chamber of 25 m^3 one hour before the test started. The product was applied in the other chamber of 25 m^3 (“treated chamber”) and let evaporate for 30 minutes. The test started when the window separating the two chambers was opened in a tilt-on manner for another 30 minutes. Twenty minutes after the window was opened, a volunteer entered in the “treated chamber” and sat down for 10 minutes, exposing the forearm for the last 3 minutes to determine the probing activity (Protective Efficacy). Then, the connecting window was closed and the number of mosquitoes in each of the chambers was counted (Spatial Repellency). The negative controls were carried out following the same procedure but without the application of the stimulus. Three replicates of each treatment and of the negative control were conducted with three different volunteers.

[6] = Anopheles gambiae, 4.47 mg/mL (Table 4), read-out: Percentage of repellence of mosquitoes Anopheles gambiae landing on the warm body
[7] = Anopheles gambiae, 10 mg/mL (Table 4), read-out: Percentage of repellence of mosquitoes Anopheles gambiae landing on the warm body
[8] = Aedes aegypti, 0.016 mg/mL (Table 3), read-out: Percentage of repellence of mosquitoes Aedes aegypti landing on the warm body
[9] = Aedes aegypti, 0.4 mg/mL (Table 3), read-out: Percentage of repellence of mosquitoes Aedes aegypti landing on the warm body
[10] = Aedes aegypti, 10 mg/mL (Table 3), read-out: Percentage of repellence of mosquitoes Aedes aegypti landing on the warm body
[11] = Aedes aegypti, highest tested concentration, 1% (Table 3)
[12] = highest tested concentration, 1% (Table 3)
[13] = Aedes aegypti, read-out: Percentage of repellence of mosquitoes Aedes aegypti landing on the warm body

CCCCN(CCC(=O)OCC)C(C)=O [IR3535, ethyl butylacetylaminopropionate, reference compound]
Complete Protection Time (no confirmed landing) [1]: 0.17 h

COC(=O)Oc1ccc(C)cc1OC [compound 1141, (2-methoxy-4-methylphenyl) methyl carbonate]
pest or weed control at 4470 µg/mL [2, 6]: 100%
pest or weed control at 10000 µg/mL [2, 7]: 69%
repellence (no mosquito landing on the attractive stimulus) [2]: 100%
pest or weed control at 400 µg/mL [3]: 8.3%
pest or weed control at 2000 µg/mL [3]: 58.3%
pest or weed control at 10000 µg/mL [3]: 66.7%
pest or weed control at 3.2 µg/mL ([4]; Aedes aegypti, 0.0032 mg/mL (Table 1), read-out: Percentage of repellence of mosquitoes Aedes aegypti landing on the warm body): 24%
pest or weed control at 7.1 µg/mL ([4]; Aedes aegypti, 0.0071 mg/mL (Table 1), read-out: Percentage of repellence of mosquitoes Aedes aegypti landing on the warm body): 39%
pest or weed control at 16 µg/mL ([4]; Aedes aegypti, 0.016 mg/mL (Table 1), read-out: Percentage of repellence of mosquitoes Aedes aegypti landing on the warm body): 17%
pest or weed control at 35.7 µg/mL ([4]; Aedes aegypti, 0.0357 mg/mL (Table 1), read-out: Percentage of repellence of mosquitoes Aedes aegypti landing on the warm body): 13%
pest or weed control at 53 µg/mL ([4]; Aedes aegypti, 0.053 mg/mL (Table 1), read-out: Percentage of repellence of mosquitoes Aedes aegypti landing on the warm body): 50%
pest or weed control at 80 µg/mL ([4]; Aedes aegypti, 0.08 mg/mL (Table 1), read-out: Percentage of repellence of mosquitoes Aedes aegypti landing on the warm body): 39%
pest or weed control at 178 µg/mL ([4]; Aedes aegypti, 0.178 mg/mL (Table 1), read-out: Percentage of repellence of mosquitoes Aedes aegypti landing on the warm body): 67%
pest or weed control at 400 µg/mL ([4]; Aedes aegypti, 0.4 mg/mL (Table 1), read-out: Percentage of repellence of mosquitoes Aedes aegypti landing on the warm body): 72%
pest or weed control at 890 µg/mL ([4]; Aedes aegypti, 0.89 mg/mL (Table 1), read-out: Percentage of repellence of mosquitoes Aedes aegypti landing on the warm body): 98%
pest or weed control at 2000 µg/mL ([4]; Aedes aegypti, 2 mg/mL (Table 1), read-out: Percentage of repellence of mosquitoes Aedes aegypti landing on the warm body): 89%
pest or weed control at 4470 µg/mL ([4]; Aedes aegypti, 4.47 mg/mL (Table 1), read-out: Percentage of repellence of mosquitoes Aedes aegypti landing on the warm body): 87%
pest or weed control at 10000 µg/mL ([4]; Aedes aegypti, 10 mg/mL (Table 1), read-out: Percentage of repellence of mosquitoes Aedes aegypti landing on the warm body): 91%

COc1ccc(C(C)=O)c(O)c1 [compound 1559, 2-hydroxy-4-methoxyacetophenone]
Percentage of repellence of ticks Ixodes ricinus on the warm plate ([3]; 0.4 mg/mL (Table 10)): 13.3%
Percentage of repellence of ticks Ixodes ricinus on the warm plate ([3]; 2 mg/mL (Table 10)): 57.1%
Percentage of repellence of ticks Ixodes ricinus on the warm plate ([3]; 10 mg/mL (Table 10)): 91.7%
Percentage of repellence of mosquitoes Aedes aegypti landing on the warm body ([4]; 0.016 mg/mL (Table 3)): 90%
Percentage of repellence of mosquitoes Aedes aegypti landing on the warm body ([4]; 0.4 mg/mL (Table 3)): 98%
Percentage of repellence of mosquitoes Aedes aegypti landing on the warm body ([4]; 10 mg/mL (Table 3)): 98%

COc1ccc(C=O)c(OC)c1 [compound 1558, 2,4-dimethoxybenzaldehyde]
pest or weed control at 400 µg/mL [3]: 16.7%
pest or weed control at 2000 µg/mL [3]: 38.5%
pest or weed control at 10000 µg/mL [3]: 91.7%
pest or weed control at 16 µg/mL [4, 8]: 86%
pest or weed control at 400 µg/mL [4, 9]: 89%
pest or weed control at 10000 µg/mL [4, 10]: 86%
pest or weed control at 0.04 % ([4]; Aedes aegypti): > 75%
pest or weed control at 0.0016 % ([4]; Aedes aegypti, lowest concentration of 0.0016% (Table 3)): > 50%

CC=Cc1cccc(OC)c1OC [compound 1125, 1,2-dimethoxy-3-prop-1-enylbenzene]
repellence of ticks Ixodes ricinus ([3]; 1% of stimulus applied (Table 9)): above 90%
pest or weed control at 400 µg/mL [3]: 25%
pest or weed control at 2000 µg/mL [3]: 36.4%
pest or weed control at 10000 µg/mL [3]: 91.7%
pest or weed control at 16 µg/mL [4, 8]: 32%
pest or weed control at 400 µg/mL [4, 9]: 78%
pest or weed control at 10000 µg/mL [4, 10]: 92%
pest or weed control at 1 % [4, 11]: > 90%
pest or weed control at 0.04 % ([4]; Aedes aegypti): > 75%

COc1ccc(C=O)c(OC(C)=O)c1 [compound 1472, (2-formyl-5-methoxyphenyl) acetate]
pest or weed control at 400 µg/mL [3]: 0%
pest or weed control at 2000 µg/mL [3]: 54.5%
pest or weed control at 10000 µg/mL [3]: 100%
ticks repelled [3]: repel all the ticks
pest or weed control at 16 µg/mL [4, 8]: 31%
pest or weed control at 400 µg/mL [4, 9]: 81%
pest or weed control at 10000 µg/mL [4, 10]: 100%
pest or weed control at 1 % [4, 11]: > 90%
pest or weed control at 0.04 % ([4]; Aedes aegypti): > 75%
mosquito landing within the two minutes of experiments [4, 12]: protect the attractive stimulus for any mosquito landing

COc1ccc(C=O)c(OC)c1OC [compound 2267, 2,3,4-trimethoxybenzaldehyde]
pest or weed control at 400 µg/mL [3]: 66.7%
pest or weed control at 2000 µg/mL [3]: 86.7%
pest or weed control at 10000 µg/mL [3]: 71.4%
pest or weed control at 16 µg/mL [4, 8]: 0%
pest or weed control at 400 µg/mL [4, 9]: 81%
pest or weed control at 10000 µg/mL [4, 10]: 96%
pest or weed control at 1 % [4, 11]: > 90%
pest or weed control at 0.04 % ([4]; Aedes aegypti): > 75%

COc1cc(C)cc(OC)c1OC [compound 1967, 3,4,5-trimethoxytoluene]
pest or weed control at 3.2 µg/mL ([2]; Anopheles gambiae, 0.0032 mg/mL (Table 5), read-out: Percentage of repellence of mosquitoes Anopheles gambiae landing on the warm body): 0%
pest or weed control at 16 µg/mL ([2]; Anopheles gambiae, 0.016 mg/mL (Table 5), read-out: Percentage of repellence of mosquitoes Anopheles gambiae landing on the warm body): 0%
pest or weed control at 80 µg/mL ([2]; Anopheles gambiae, 0.08 mg/mL (Table 5), read-out: Percentage of repellence of mosquitoes Anopheles gambiae landing on the warm body): 1%
pest or weed control at 178 µg/mL ([2]; Anopheles gambiae, 0.178 mg/mL (Table 4), read-out: Percentage of repellence of mosquitoes Anopheles gambiae landing on the warm body): 65%
pest or weed control at 178 µg/mL ([2]; Anopheles gambiae, 0.178 mg/mL (Table 5), read-out: Percentage of repellence of mosquitoes Anopheles gambiae landing on the warm body): 59%
pest or weed control at 267 µg/mL ([2]; Anopheles gambiae, 0.267 mg/mL (Table 4), read-out: Percentage of repellence of mosquitoes Anopheles gambiae landing on the warm body): 78%
pest or weed control at 267 µg/mL ([2]; Anopheles gambiae, 0.267 mg/mL (Table 5), read-out: Percentage of repellence of mosquitoes Anopheles gambiae landing on the warm body): 82%
pest or weed control at 400 µg/mL ([2]; Anopheles gambiae, 0.4 mg/mL (Table 4), read-out: Percentage of repellence of mosquitoes Anopheles gambiae landing on the warm body): 84%
pest or weed control at 400 µg/mL ([2]; Anopheles gambiae, 0.4 mg/mL (Table 5), read-out: Percentage of repellence of mosquitoes Anopheles gambiae landing on the warm body): 71%
pest or weed control at 2000 µg/mL ([2]; Anopheles gambiae, 2 mg/mL (Table 5), read-out: Percentage of repellence of mosquitoes Anopheles gambiae landing on the warm body): 100%
pest or weed control at 4470 µg/mL [2, 6]: 100%
pest or weed control at 4470 µg/mL ([2]; Anopheles gambiae, 4.47 mg/mL (Table 5), read-out: Percentage of repellence of mosquitoes Anopheles gambiae landing on the warm body): 100%
pest or weed control at 10000 µg/mL [2, 7]: 100%
pest or weed control at 10000 µg/mL ([2]; Anopheles gambiae, 10 mg/mL (Table 5), read-out: Percentage of repellence of mosquitoes Anopheles gambiae landing on the warm body): 100%
repellence ([2]; concentration ≥0.0178% (Table 5)): > 50%
landing ([2]; concentrations ≥0.2% (Table 5)): no landing at all
percentage of repellence ([2]; lowest concentration tested, 0.0178% (Table 4)): above 60%
repellence (no mosquito landing on the attractive stimulus) [2]: 100%
pest or weed control at 16 µg/mL [4, 8]: 0%
pest or weed control at 400 µg/mL [4, 9]: 12%
pest or weed control at 10000 µg/mL [4, 10]: 81%
mosquitoes landed on the volunteer ([5]; in 3 minutes, negative control 60.7±2.5 landings): 22.3±3.2
Spatial Repellence ([5]; large scale assay, 25 m3 chambers, compound released in the air): 47.3 ± 3.8%
Protective efficacy ([5]; large scale assay, probing on volunteer forearm, 3 minutes): 63.1 ± 5.5%
mosquito entered the treated chamber ([5]; negative control 82.5±3.7%): 43.5±3.2%

CC=Cc1ccc(OC)c(OC)c1 [compound 1195, 1,2-dimethoxy-4-prop-1-enylbenzene]
pest or weed control at 400 µg/mL [3]: 46.2%
pest or weed control at 2000 µg/mL [3]: 76.9%
pest or weed control at 10000 µg/mL [3]: 100%
ticks repelled [3]: repel all the ticks
pest or weed control at 16 µg/mL [4, 13]: 56%
pest or weed control at 400 µg/mL [4, 13]: 69%
pest or weed control at 10000 µg/mL [4, 13]: 100%
pest or weed control at 0.0016 % ([4]; Aedes aegypti): > 50%
pest or weed control at 1 % ([4]; Aedes aegypti): > 90%
mosquito landing within the two minutes of experiments [4, 12]: protect the attractive stimulus for any mosquito landing
